Assay results published in patent US20020099073A1, “Modulators of protein tyrosine phosphatases (PTPases)” (priority 2000, published 2002).

What follows are molecules tested against T1, truncated form of PTP1B (corresponding to the first 321 amino acids) (Homo sapiens, UniProt P18031) (assay: Inhibition of PTP1B, p-nitrophenyl phosphate substrate). Conditions: substrate p-nitrophenyl phosphate 0.16 to 10 mM; 100 mM sodium acetate pH 5.5; 25° C. for 60 minutes; absorbance at 405 nm.
T1 construct: truncated form of PTP1B (corresponding to the first 321 amino acids); made in house; host or cells: E. coli
T1 sequence (P18031 1-321): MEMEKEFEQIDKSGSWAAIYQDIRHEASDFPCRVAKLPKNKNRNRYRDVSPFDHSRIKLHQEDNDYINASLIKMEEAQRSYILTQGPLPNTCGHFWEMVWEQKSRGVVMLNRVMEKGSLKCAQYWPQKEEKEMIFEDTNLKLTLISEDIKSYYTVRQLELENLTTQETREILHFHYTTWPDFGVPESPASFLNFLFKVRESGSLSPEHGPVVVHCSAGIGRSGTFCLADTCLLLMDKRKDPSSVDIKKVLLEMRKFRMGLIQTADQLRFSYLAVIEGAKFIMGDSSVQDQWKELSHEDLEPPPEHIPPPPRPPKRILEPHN
Assay type: biochemical
Description: The compounds are evaluated for biological activity with a truncated form of PTP1B (corresponding to the first 321 amino acids), which was expressed in E. coli and purified to apparent homogeneity using published procedures well-known to those skilled in the art. The enzyme reactions are carried out using standard conditions essentially as described by Burke et al. (Biochemistry 35; 15989-15996 (1996)). The assay conditions are as follows. Appropriate concentrations of the compounds of the invention are added to the reaction mixtures containing different concentrations of the substrate, p-nitrophenyl phosphate (range: 0.16 to 10 mM—final assay concentration). The buffer used was 100 mM sodium acetate pH 5.5, 50 mM sodium chloride, 0.1% (w/v) bovine serum albumin and 5 mM dithiothreitol (total volume […]). The reaction was started by addition of the enzyme and carried out in microtiter plates at 25° C. for 60 minutes. The reactions are stopped by addition of NaOH. The enzyme activity was determined by measurement of the absorbance at 405 nm with appropriate corrections for absorbance at 405 nm of the compounds and p-nitrophenyl phosphate. The data are analyzed using nonlinear regression fit to classical Michaelis Menten enzyme kinetic models. Inhibition is expressed as Ki values in μM.
`O=C(O)C(=O)Nc1sc2c(c1C(=O)O)C[C@H](CNC(=O)c1ccc(NC(=O)c3ccccc3)cc1)NC2` [Example 22, 5-(R)-((4-Benzoylamino-benzoylamino)methyl)-2-(oxalyl-amino)-4,5,6,7-tetrahydro-thieno[2,3-c]pyridine-3-carboxylic Acid] was tested, and the Ki was 3200 nM.
`O=C(O)C(=O)Nc1sc2c(c1C(=O)O)CC(CNC(=O)c1ccc(NC(=O)c3ccccc3)cc1)NC2` (centres unmarked) [Example 5, 5-((4-Benzoylamino-benzoylamino)methyl)-2-(oxalyl-amino)-4,5,6,7-tetrahydro-thieno[2,3-c]pyridine-3-carboxylic Acid] showed a Ki of 250 nM.
For `O=C(O)C(=O)Nc1sc2c(c1C(=O)O)CC(CNC(=O)c1ccccc1O)NC2` (centres unmarked) [Example 18, 5-((2-Hydroxy-benzoylamino)-methyl)-2-(oxalyl-amino)-4,5,6,7-tetrahydro-thieno[2,3-c]pyridine-3-carboxylic Acid], the Ki was 680 nM.
`CC(=O)Nc1ccc(S(=O)(=O)NC[C@@H]2Cc3c(sc(NC(=O)C(=O)O)c3C(=O)O)CN2)cc1` [Example 29, 5-(S)-((4-Acetylamino-benzenesulfonylamino)methyl)-2-(oxalyl-amino)-4,5,6,7-tetrahydro-thieno[2,3-c]pyridine-3-carboxylic Acid] was tested, and the Ki was 130 nM.
Molecule `O=C(O)C(=O)Nc1sc2c(c1C(=O)O)CC(CNC(=O)c1ccc(-c3ccccc3)cc1)NC2` (centres unmarked) [Example 9, 5-(((Biphenyl-4-carbonyl)amino)methyl)-2-(oxalyl-amino)-4,5,6,7-tetrahydro-thieno[2,3-c]pyridine-3-carboxylic Acid] has a Ki of 220 nM.
In the case of `CC(=O)Nc1ccc(S(=O)(=O)NC[C@H]2Cc3c(sc(NC(=O)C(=O)O)c3C(=O)O)CN2)cc1` [Example 28, 5-(R)-((4-Acetylamino-benzenesulfonylamino)methyl)-2-(oxalyl-amino)-4,5,6,7-tetrahydro-thieno[2,3-c]pyridine-3-carboxylic Acid], the Ki is reported as 3500 nM.
Work on `O=C(NC[C@@H]1Cc2c(sc(NC(=O)C(=O)O)c2C(=O)O)CN1)Nc1ccc(Oc2ccccc2)cc1` [Example 27, 2-(Oxalyl-amino)-5-(S)-(3-(4-phenoxy-phenyl)ureidomethyl)-4,5,6,7-tetrahydro-thieno[2,3-c]pyridin-3-carboxylic Acid] yielded a Ki of 200 nM.
With `COc1ccc(CN2Cc3sc(NC(=O)C(=O)O)c(C(=O)O)c3CC2CNC(=O)c2cc3cc(OCc4ccccc4)ccc3[nH]2)cc1` (centres unmarked) [Example 3, 5-(((5-Benzyloxy-1H-indole-2-carbonyl)amino)methyl)-6-(4-methoxy-benzyl)-2-(oxalyl-amino)-4,5,6,7-tetrahydro-thieno[2,3-c]pyridine-3-carboxylic Acid] the Ki was 4300 nM.
With `O=C(O)C(=O)Nc1sc2c(c1C(=O)O)CC(CNC(=O)c1ccccc1)NC2` (centres unmarked) [Example 1, 5-(Benzoylamino-methyl)-2-(oxalyl-amino)-4,5,6,7-tetrahydro-thieno[2,3-c]Pyridine-3-carboxylic Acid] the Ki was 520 nM.
`Cc1nn(-c2ccccc2)nc1C(=O)NCC1Cc2c(sc(NC(=O)C(=O)O)c2C(=O)O)CN1` (centres unmarked) [Example 11, 5-(((5-Methyl-2-phenyl-2H-[1,2,3]triazole-4-carbonyl)amino]methyl)-2-(oxalyl-amino)-4,5,6,7-tetrahydro-thieno[2,3-c]pyridin-3-carboxylic Acid] gave a Ki of 1500 nM.
With `O=C(O)C(=O)Nc1sc2c(c1C(=O)O)C[C@@H](CNC(=O)c1ccc3ccccc3c1O)NC2` [Example 23, 5-(S)-(((1-Hydroxy-naphthalene-2-carbonyl)amino)methyl)-2-(oxalyl-amino)-4,5,6,7-tetrahydro-thieno[2,3-c]pyridine-3-carboxylic Acid] the Ki was 150 nM.
For `COc1ccc(CN2Cc3sc(NC(=O)C(=O)O)c(C(=O)O)c3CC2CNC(=O)c2nn(-c3ccccc3)nc2C)cc1` (centres unmarked) [Example 6, 6-(4-Methoxy-benzyl)-5-(((5-methyl-2-phenyl-2H-[1,2,3]triazole-4-carbonyl)-amino)methyl)-2-(oxalyl-amino)-4,5,6,7-tetrahydro-thieno[2,3-c]pyridine-3-carboxylic Acid], the Ki was 20000 nM.
“5-(Benzyloxycarbonylamino-methyl)-2-(oxalyl-amino)-4,5,6,7-tetrahydro-thieno[2,3-c]pyridine-3-carboxylic acid and 7-(benzyloxycarbonylamino-methyl)-2-(oxalyl-amino)-4,5,6,7-tetrahydro-thieno[2,3-c]pyridine-3-carboxylic Acid [Example 17]” was tested, and the Ki was 1500 nM.
With `O=C(O)C(=O)Nc1sc2c(c1C(=O)O)C[C@@H](CNC(=O)c1cccc(Oc3ccccc3)c1)NC2` [Example 20, 2-(Oxalyl-amino)-5-(S)-((3-phenoxy-benzoylamino)methyl)-4,5,6,7-tetrahydro-thieno[2,3-c]pyridine-3-carboxylic Acid] the Ki was 270 nM.
In the case of `COc1ccc(CN2Cc3sc(NC(=O)C(=O)O)c(C(=O)O)c3CC2CNC(=O)c2cccc3ccccc23)cc1` (centres unmarked) [Example 16, 6-(4-Methoxybenzyl)-5-(((naphthalene-1-carbonyl)amino)methyl)-2-(oxalyl-amino)-4,5,6,7-tetrahydro-thieno[2,3-c]pyridine-3-carboxylic Acid], the Ki is reported as 20000 nM.
With `O=C(O)C(=O)Nc1sc2c(c1C(=O)O)CC(CNC(=O)c1cc3ccccc3[nH]1)NC2` (centres unmarked) [Example 14] the Ki was 670 nM.
`CCOc1ccc(C(=O)NCC2Cc3c(sc(NC(=O)C(=O)O)c3C(=O)O)CN2)c(O)c1` (centres unmarked) [Example 10, 5-((4-Ethoxy-2-hydroxy-benzoylamino)methyl)-2-(oxalyl-amino)-4,5,6,7-tetrahydro-thieno[2,3-c]pyridine-3-carboxylic Acid] showed a Ki of 340 nM.
In the case of `O=C(O)C(=O)Nc1sc2c(c1C(=O)O)C[C@@H](CNC(=O)c1cc3ccccc3cc1O)NC2` [Example 24, 5-(S)-(((3-Hydroxy-naphthalene-2-carbonyl)amino)methyl)-2-(oxalyl-amino) 4,5,6,7-tetrahydro-thieno[2,3-c]pyridine-3-carboxylic Acid], the Ki is reported as 220 nM.
`COc1ccc(CN2Cc3sc(NC(=O)C(=O)O)c(C(=O)O)c3CC2CNC(=O)c2cc(-c3ccc(C)cc3)nc3ccc(Br)cc23)cc1` (centres unmarked) [Example 2, 5-(((6-Bromo-2-p-tolyl-quinoline-4-carbonyl)amino)methyl)-6-(4-methoxy-benzyl)-2-(oxalyl-amino)-4,5,6,7-tetrahydro-thieno[2,3-c]pyridine-3-carboxylic Acid] was tested, and the Ki was 100000 nM.
`COc1ccc(CN2Cc3sc(NC(=O)C(=O)O)c(C(=O)O)c3CC2CNC(=O)c2ccc(NC(=O)c3ccccc3)cc2)cc1` (centres unmarked) [Example 4] showed a Ki of 3000 nM.
For `COc1ccc2cc(O)c(C(=O)NC[C@@H]3Cc4c(sc(NC(=O)C(=O)O)c4C(=O)O)CN3)cc2c1` [Example 25, 5-(S)-(((3-Hydroxy-7-methoxy-naphthalene-2-carbonyl)amino)methyl)-2-(oxalyl-amino)-4,5,6,7-tetrahydro-thieno[2,3-c]pyridine-3-carboxylic Acid], the Ki was 210 nM.
For `O=C(O)C(=O)Nc1sc2c(c1C(=O)O)CC(CNC(=O)c1cccc(O)c1)NC2` (centres unmarked) [Example 19, 5-((3-Hydroxy-benzoylamino)methyl)-2-(oxalyl-amino)-4,5,6,7-tetrahydro-thieno[2,3-c]Pyridine-3-carboxylic Acid], the Ki was 950 nM.
Molecule `O=C(O)C(=O)Nc1sc2c(c1C(=O)O)C[C@@H](CNC(=O)c1ccc(NC(=O)c3ccccc3)cc1)NC2` [Example 21, 5-((4-Benzoylamino-benzoylamino)methyl)-2-(oxalyl-amino)-4,5,6,7-tetrahydro-thieno[2,3-c]pyridine-3-carboxylic Acid] has a Ki of 160 nM.
